Data from US20070196811A1, “Use Of Flavanol Derivatives For The Cryopreservation Of Living Cells” (priority 2004, published 2007).

System: spermatozoa
Experiment: Post-thaw sperm motility after freezing in supplemented CryoProtec medium, analyzed by CASA
Type: cell-based
Settings: for Percentage of motile spermatozoa: thawed after 24 h in liquid nitrogen, mean±SD, 5 experiments; for velocity parameters, including linear velocity (VSL) and lateral head displacement (AHL): post-thaw, Cryoprotec medium supplemented with compound
Description: Aliquots of 50 μL of solutions of different 4-thioderivatives of flavan-3-ol of formula (I) hereof dissolved in PureSperm Wash medium (Nidacon International, Sweden), were added to 0.95 mL of the spermatozoa suspension (50 millions/mL) in CryoProtec freezing medium (Nidacon International, Sweden) in 1.8 mL Nunc vials in order to obtain final concentrations of 1, 10, 25, 50 and 100 μg/mL. Aliquots of 50 μL of solutions of (−)-epicatechin, a natural flavan-3-ol, were treated in the same way. As a control, 50 μL of PureSperm Wash medium (Nidacon International) were added instead of the solutions of the compounds of the invention (0 μg/mL). The percentage of motile cells in the different cellular suspensions was analyzed by CASA (Computer-Assisted Sperm Analysis) using an IVOS-IDENT (Hamilton-Thorn, Beverly, Mass.).
The cellular suspensions were processed for freezing using a standard freezing gradient as follows: cooling from room temperature to 4° C. in 30 min, from 4° C. to 0° C. in 3 min and immediately transferred to liquid nitrogen tanks. After 24 h in liquid nitrogen, the samples were thawed in a water bath at 37° C.
The percentage of motile spermatozoa in the different samples obtained above was analyzed by CASA. Since vials corresponding to the different compounds were in different boxes inside the nitrogen tanks, a control was used for each group of compounds.
Values are the mean±SD from a total of 5 experiments per concentration.

[1] = 1 μg/mL (approximate) compound in freezing medium
[2] = 10 μg/mL (approximate) compound in freezing medium
[3] = 25 μg/mL (approximate) compound in freezing medium
[4] = 50 μg/mL (approximate) compound in freezing medium
[5] = 100 μg/mL (approximate) compound in freezing medium

SMILES | Percentage of motile spermatozoa [1] | Percentage of motile spermatozoa [2] | Percentage of motile spermatozoa [3] | Percentage of motile spermatozoa [4] | Percentage of motile spermatozoa [5] | post-thaw motility recovery versus control ((−)-epicatechin versus control, all concentrations) | protection, evaluated in terms of sperm motility (concentrations ranging from 1 to 100 μg/mL) | storage stabilizing cryoprotective effect (summary statement) | velocity parameters, including linear velocity (VSL) and lateral head displacement (AHL)
Oc1cc(O)c2c(c1)O[C@H](c1ccc(O)c(O)c1)[C@H](O)C2 [(−)-epicatechin, reference compound] | 46.8 ± 1.9% | 47.0 ± 2.2% | 47.6 ± 3.2% | 47.4 ± 2.6% | 46.8 ± 1.3% | No significant differences | no significant protection | no significant storage stabilizing cryoprotective effect | 
N[C@@H](CS[C@H]1c2c(O)cc(O)cc2O[C@H](c2ccc(O)c(O)c2)[C@@H]1O)C(=O)O [4β-(S-cysteinyl)epicatechin] | 47.6 ± 3.0% | 52.0 ± 2.3% | 61.8 ± 2.6 % | 69.8 ± 3.2 % | 70.2 ± 2.8 % |  |  |  | significantly higher
COC(=O)[C@H](CS[C@H]1c2c(O)cc(O)cc2O[C@H](c2ccc(O)c(O)c2)[C@@H]1O)NC(C)=O [Example 4, 4β-[S—(N-acetyl-O-methyl-cysteinyl)]epicatechin] | 47.6 ± 3.7% | 49.8 ± 3.0% | 54.8 ± 5.2 % | 59.4 ± 3.3 % | 59.2 ± 2.8 % |  |  |  | significantly higher
